Reference: US8506950B2, “Degradable microcapsules” (ETH Zurich, priority 2008, dated 2013)

Key:
rLHR [1] = target: T1, rLHR (Rattus norvegicus, UniProt P16235); assay: bLH-dependent disruption of CS/pDADMAC microcapsules containing CK04 cells transfected with pCK71; format: cell-based; parameters: Full-length cDNAs encoding the LHRs of rat (r) and bovine (b) origin; expressed in transfected cells; host or cells: CK04: HEK293T stably cotransfected with pLEN-rLHR and pZeoSV2(+), clone 6; conditions: 500 ng/ml bLH, 24 hours post-induction
Experimental: (A) Phase-contrast photomicrographs of CS/pDADMAC encapsulated CK04 cells transiently transfected for PCRE controlled cellulase expression (pCK71, PCRE-cellulase-pA). The microcapsules were cultured in the absence or presence of 500 ng/ml bLH. In the presence of bLH the capsules were disrupted by the induced expression of cellulase whereas the non-induced capsules remained intact. Arrows indicate the disrupted capsules.
(B) Quantification of microcapsule disruption. Per sample approximately 150 capsules were counted and the amount of capsule disruption was calculated. 24 hours post-induction 98% of the capsules were disrupted by the induced cellulase. […]
Cells were encapsulated using the Inotech Encapsulator Research Unit IE-50R (Inotech Biotechnologies Ltd, Basel, Switzerland). […] The cells were counted using a Casy Counter (Scharfe Systems, Reutlingen, Germany) and 1×10^6 cells were resuspended in sodium […] sulfate solution (2% (w/v) in PBS, CS, Euroferm, Erlangen, Germany, Batch-No: FCY-06A) and aseptically encapsulated according to the standard protocol using the following settings: 0.2 mm nozzle with a nozzle vibration frequency of 1250 Hz, 20 ml syringe at a flow rate of 410 units, voltage for bead dispersion 1.15 kV. […]

rLHR [2] = target: T1, rLHR; assay: Reporter gene expression (SEAP, eYFP) of CS/pDADMAC-encapsulated CK04 cells; format: cell-based; parameters: Full-length cDNAs encoding the LHRs of rat (r) and bovine (b) origin; expressed in transfected cells; host or cells: CK04: HEK293T stably cotransfected with pLEN-rLHR and pZeoSV2(+), clone 6
Description: The SEAP production increased over time in the presence but not the absence of bLH.
To determine whether bLH can penetrate microcapsules and activate the gene expression of encapsulated cells, CK04 cells were transiently transfected with a vector encoding PCRE controlled eYFP expression (pCK91, PCRE-eYFP-pA). After transfection the cells were encapsulated in CS/pDADMAC-microcapsules and cultured in the absence or presence of bLH. […] In contrast in the absence of bLH the cells remained non-fluorescent. […] It was also investigated if the activation of encapsulated cells is bLH dose- and time-dependent. Therefore, CK04 cells transiently transfected for PCRE dependent SEAP expression (pCK62, PCRE-SEAP-PA) were encapsulated, the capsules cultured in the absence or presence of 100 ng/ml or 500 ng/ml bLH and the SEAP expression measured in 12 hours intervals (FIG. 11). […] 60 hours post-induction a 2.3±0.2 fold higher SEAP expression for LH-surge doses of bLH compared to 100 ng/ml hormone was measured. […]
The intracellular cAMP production of cells was quantified using the cAMP Fluorescence Polarization (FP) Biotrak Immunoassay System (GE Healthcare Bio-Sciences GmbH, Otelfingen, Switzerland, Cat No. RPN3595) according to the manufacturer's protocol. The expression of firefly luciferase was determined with the Tropix Luciferase Assay Kit (Applied Biosystems, Bedford, USA, Cat No. BC100L). […]

T1 sequence (P16235 27-700): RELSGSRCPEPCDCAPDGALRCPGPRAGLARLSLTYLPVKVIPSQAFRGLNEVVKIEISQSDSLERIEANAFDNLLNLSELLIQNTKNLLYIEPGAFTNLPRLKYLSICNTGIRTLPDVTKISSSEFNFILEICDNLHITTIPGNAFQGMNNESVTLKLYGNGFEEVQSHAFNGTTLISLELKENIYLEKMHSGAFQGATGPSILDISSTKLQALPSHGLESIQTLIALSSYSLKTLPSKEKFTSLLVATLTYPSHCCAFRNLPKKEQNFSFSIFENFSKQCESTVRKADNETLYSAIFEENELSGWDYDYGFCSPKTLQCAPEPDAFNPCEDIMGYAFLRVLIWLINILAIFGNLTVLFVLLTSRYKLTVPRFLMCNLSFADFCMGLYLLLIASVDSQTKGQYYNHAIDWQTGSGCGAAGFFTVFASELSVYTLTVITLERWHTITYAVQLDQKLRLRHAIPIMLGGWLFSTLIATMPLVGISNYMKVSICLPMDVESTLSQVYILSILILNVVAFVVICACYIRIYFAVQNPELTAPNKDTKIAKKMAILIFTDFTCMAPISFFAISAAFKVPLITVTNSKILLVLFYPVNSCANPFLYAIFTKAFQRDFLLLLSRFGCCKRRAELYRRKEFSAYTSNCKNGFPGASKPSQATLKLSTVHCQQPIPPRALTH

disrupted capsules (rLHR [1]): 98%
SEAP expression for LH-surge doses of bLH compared to 100 ng/ml (rLHR [2]; encapsulated CK04, pCK62, 60 hours post-induction, 500 ng/ml vs 100 ng/ml): 2.3±0.2 fold
eYFP expression of encapsulated cells (rLHR [2]; encapsulated CK04, pCK91, bLH present): strongly induced
Substance: bovine luteinizing hormone [bLH]
